Assay results published in PubChem BioAssay (NCI).
“And” between values parts separate entries of the source, which are not always exact repeats. Equal entries are not always repeated.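 How tested: cells in 96-well plates exposed to compound for 48 hours at five concentrations. GI50 = concentration required for 50% inhibition of growth. TGI: total growth inhibition.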

Legend:
Experiment in all cases: NCI anticancer screen, dose series, 48 h
786-0 renal = test system: 786-0 renal
A498 renal = test system: A498 renal
CAKI-1 renal = test system: CAKI-1 renal
KM12 colon = test system: KM12 colon
MALME-3M melanoma = test system: MALME-3M melanoma
NCI-H23 lung = test system: NCI-H23 lung
SF-295 CNS = test system: SF-295 CNS
SNB-19 CNS = test system: SNB-19 CNS
SNB-75 CNS = test system: SNB-75 CNS
UACC-62 melanoma = test system: UACC-62 melanoma

Row | SMILES | GI50 (786-0 renal) | TGI (786-0 renal) | GI50 (A498 renal) | TGI (A498 renal) | GI50 (CAKI-1 renal) | TGI (CAKI-1 renal) | GI50 (KM12 colon) | TGI (KM12 colon) | GI50 (MALME-3M melanoma) | TGI (MALME-3M melanoma) | GI50 (NCI-H23 lung) | TGI (NCI-H23 lung) | GI50 (SF-295 CNS) | TGI (SF-295 CNS) | GI50 (SNB-19 CNS) | TGI (SNB-19 CNS) | GI50 (SNB-75 CNS) | TGI (SNB-75 CNS) | GI50 (UACC-62 melanoma) | TGI (UACC-62 melanoma)
1 | CC1(C)[C@@H](OC(N)=O)[C@H]2O[C@H]2[C@]2(CO)[C@H]3CC[C@]4(C)[C@@H](c5ccc(=O)oc5)[C@@H](Cl)C[C@]4(O)C3=CC[C@@H]12 | 0.0052 µM | 0.0136 µM | 0.0144 µM | 0.0748 µM | 0.00521 µM | 0.0132 µM | 0.0107 µM | 0.0445 µM | 0.00616 µM | 0.0149 µM | 0.00552 µM | 0.0152 µM | 0.0072 µM | 0.0264 µM | 0.0161 µM | 0.0509 µM | 0.00467 µM | 0.0138 µM | 0.00892 µM | 0.0332 µM
2 | C=C1C(=O)OC2/C=C(/C)C(OC(C)=O)CC(O)/C(C)=C\C(OC(=O)/C(C)=C\C)C12 (stereo not given) |  | 35.4 µM |  | > 100 µM |  | 86.4 µM |  | > 100 µM |  | 30.9 µM |  | > 100 µM |  | > 100 µM |  | > 100 µM |  | > 100 µM |  | > 100 µM
3 | CCOc1ccccc1N=Nc1c(C)[nH]n(-c2nc(-c3ccccc3)cs2)c1=O | 35.4 µM | > 100 µM | 23.5 µM | > 100 µM | > 54.2 µM | > 100 µM | > 100 µM | > 100 µM | 60.9 µM | > 100 µM | > 74.1 µM | > 100 µM | 28.3 µM | > 100 µM | 43.1 µM | > 100 µM | 14.3 µM | 48.3 µM | 35.6 µM | > 100 µM
4 | Cc1cc(Cl)ccc1NC(=O)CC/C(CC(=O)C(C)C)=N\NC(=O)C[n+]1ccccc1 |  | > 100 µM |  | > 100 µM |  | > 100 µM |  | > 100 µM |  | > 100 µM |  | > 100 µM |  | > 100 µM |  | > 100 µM |  | > 100 µM |  | > 100 µM
5 | O=C(NC[C@H](O)CO)c1ccncc1Nc1ccc(I)cc1F | > 10 µM and 6.21 µM | > 100 µM | 0.03 µM and 0.0394 µM | 0.417 µM and 0.517 µM | 0.59 µM and 1.38 µM | > 100 µM | 0.111 µM and 0.154 µM | > 100 µM | 0.00242 µM and < 0.01 µM | 0.0972 µM and < 0.0162 µM | 0.0913 µM and 0.0707 µM | > 71.8 µM | > 41 µM | > 100 µM | > 10 µM and 21.2 µM | > 100 µM | > 10 µM and 33.2 µM | > 100 µM | 0.00248 µM and < 0.01 µM | 0.0292 µM
6 | O=[N+]([O-])c1cccc([As]=[As]c2cccc([N+](=O)[O-])c2)c1 (stereo not given) | 0.0961 µM | 0.222 µM | 0.0835 µM | 0.231 µM | 0.137 µM | 0.281 µM | 0.172 µM | 0.343 µM | 0.0562 µM | 0.155 µM | 0.182 µM | 0.384 µM | 0.178 µM | 0.34 µM | 0.145 µM | 0.279 µM | 0.0611 µM | 0.206 µM | 0.0885 µM | 0.212 µM
7 | C=C(CO[Si](C)(C)C(C)(C)C)C(C)=O |  | 34.3 µM |  | > 100 µM |  | 46.9 µM |  | > 100 µM |  | 39.7 µM |  | > 56.3 µM |  | > 100 µM |  | > 100 µM |  | 62.3 µM |  | 30.5 µM
